{
  "source": "patent US12138268B2",
  "about": "“Treatment of erectile dysfunction and other indications” (Strategic Science & Technologies, LLC, priority 2009, dated 2024)",
  "origin": "cited, not measured here",
  "data": [
    {"compound": "CCCOc1ccc(S(=O)(=O)N2CCN(CCO)CC2)cc1-c1nc2c(CCC)cn(CC)c2c(=O)[nH]1", "note": "[mirodenafil]", "values": [
      {"measurement": "pKa", "value": 6.0}
    ]}
  ]
}
